Measurements from the NIST ThermoML archive (doi:10.1021/je500211w).

Experiment: xn = mol fraction of the nth substance listed
Details: 101 kPa, Liquid, NMR spin-echo technique

OCC(F)(F)F [2,2,2-trifluoroethanol] + O
binary diffusion coefficient [m2/s]
Details | 283.2 K | 288.2 K | 293.2 K | 298.2 K | 303.2 K | 308.2 K | 313.2 K
x1 = 0.000511 | 7.32e-10 | 8.43e-10 | 1.02e-09 | 1.13e-09 | 1.28e-09 | 1.44e-09 | 1.71e-09
x1 = 0.001034 | 7.18e-10 | 8.44e-10 | 9.98e-10 | 1.11e-09 | 1.27e-09 | 1.46e-09 | 1.71e-09
x1 = 0.004989 | 6.91e-10 | 8.01e-10 | 9.67e-10 | 1.1e-09 | 1.23e-09 | 1.41e-09 | 1.66e-09
x1 = 0.009331 | 6.69e-10 | 7.62e-10 | 9.35e-10 | 1.1e-09 | 1.2e-09 | 1.36e-09 | 1.57e-09
x1 = 0.01008 | 6.68e-10 | 7.87e-10 | 8.96e-10 | 1.06e-09 | 1.23e-09 | 1.37e-09 | 1.57e-09
x1 = 0.04965 | 4.57e-10 | 5.52e-10 | 7.24e-10 | 8.51e-10 | 9.71e-10 | 1.1e-09 | 1.28e-09
